# Test results published in patent US7884067B2, “Peptides derived from cadherin and methods of use thereof” (Mount Sinai School of Medicine of New York University, priority 2001, dated 2011).
# Tests used:
# N-cadherin [1] = test: In vitro γ-secretase-like ε-cleavage assay, membranes of WT-PS1-transfected HEK293 cells; assay type: biochemical, human; details: membranes from WT-PS1-transfected clone #7, presence of L-685,458, 37° C. 2 hours
# Method: (§1) In vitro γ-secretase-like ε-cleavage assay. Cells were washed in PBS, resuspended in 1 ml of 4° C. hypotonic buffer (10 mM MOPS, pH 7.0, 10 mM KCl) and homogenized on ice. A post-nuclear supernatant was prepared by centrifugation at 1000×g for 15 minutes at 4° C. Crude membranes were isolated from the post-nuclear supernatant by centrifugation at 16,000×g for 40 minutes at 4° C. The membranes were then resuspended in […] of assay buffer (150 mM sodium citrate, pH 6.4, 1× Complete protease inhibitor cocktail), and incubated at 37° C. for 2 hours. Samples were either analyzed directly by WB or separated into pellet (P100) and supernatant (S100) fractions by ultracentrifugation for 1 hour at 100,000×g at 4° C. The S100 and P100 fractions were then analyzed by WB.
# Membranes from PS1−/− (FIG. 7C, lane 1) or PS1+/+ (FIG. 7C, lanes 2-4) fibroblasts or from N2a cell cultures (FIG. 7C, lanes 5-6) incubated for 16 hours in the absence or presence of DMSO or L-685,458 ([…]), were incubated at 37° C. for 2 hours, separated by centrifugation in a pellet (P100, FIG. 7C, upper panels) and a soluble (S100, FIG. 7C, lower panels) fractions and then probed on WBs with C32 antibody. […]
# N-cadherin [2] = test: In vitro ε-cleavage assay, membranes from embryonic fibroblast cultures (WT / PS1 P264L knock-in study); assay type: biochemical, mouse; details: FIG. 13A lanes 1 and 2
# Method: as §1
# To investigate the consequences of FAD mutations in a physiologically relevant system in the absence of PS1 overexpression, the ε-cleavage of N-cadherin was examined in two independent embryonic fibroblast clones derived from a gene-targeted (knock-in) mouse homozygous for the human PS1 FAD mutation P264L (Siman et al. (2000) J. Neurosci. 20:8717-8726). Expression of the knock-in mutant PS1 allele is under the control of the endogenous PS1 gene. These models are distinct from overexpressing transgenic models because the mutant gene is expressed at normal levels, similar to those observed in WT models (FIG. 13, panel d). […]
# N-cadherin [3] = test: N-cadherin processing in fibroblast cultures (Western blot, C32); assay type: cell-based, mouse; details: WT fibroblasts, L-685,458 (0.5 μM), 16 hours
# Method: Extracts from PS1+/+ or PS1−/− mouse embryos were probed on WBs with either anti-cytoplasmic N-cadherin antibody (FIG. 7A, upper panel) or anti-PS I/CTF antibody 33B10 (FIG. 7A, lower panel). Extracts from PS1+/+ or PS1−/− fibroblast cultures were incubated for 16 hours in the absence or presence of DMSO, L-685,458 (0.5 μM) and probed on WBs with either C32 or 33B10 antibodies.
# CBP/CREB complex = biological target: T1, CBP/CREB complex (Mus musculus, UniProt P45481); test: Electrophoretic mobility shift assay, CREB probe; assay type: biochemical; details: nuclear extract from cells transfected with 0.2 μg and 0.5 μg pN-Cad/CTF2, FIG. 11C lanes 6-8
# T1 construct: full length mouse CBP inserted into vector pRc/RSV; expressed in transfected cells; host or cells: L cells transfected with mouse CBP (pRc/RSV), without or with 0.2 or 0.5 µg pN-Cad/CTF2; nuclear extract
# Method: Electrophoresis mobility shift assay (EMSA). Nuclear extract from CBP-transfected L cells were prepared using the extraction kit N-XTRACT (Sigma) according to manufacturer's instructions. Ten microgram of nuclear extract was used for EMSA performed according to manufacturer's instructions using biotinylated double-stranded oligonucleotide probes containing DNA-binding motifs for CREB or MEF-1 (Panomics). Probes are as follow: CREB, 5′-[…]-3′ (SEQ ID NO: 17); MEF-1,5′-[…]-3′ (SEQ ID NO: 18). Reaction products were separated on 6% polyacrylamide gels in cold TBE buffer (50 mM Tris-HCl, 45 mM Boric acid, 0.5 mM EDTA), transferred to nylon membranes (Immobilon-Ny+, Millipore) and bound probes were immobilized for 30 minutes at 85° C. and visualized by chemiluminescence using streptavidin-HRP conjugate. For antibody supershift analysis, nuclear extract was incubated for 3 hours at 4° C. with […] of 1 B6 antibody prior to probe addition. Where indicated, nuclear extract ([…]) was immunoprecipitated with A-22 antibody ([…]) and protein A-agarose in EBC buffer (50 mM Tris, pH 8, 120 mM NaCl, 0.5% NP40, 1× Complete protease inhibitor cocktail).
# T1 sequence (P45481 whole entry, one chain of several): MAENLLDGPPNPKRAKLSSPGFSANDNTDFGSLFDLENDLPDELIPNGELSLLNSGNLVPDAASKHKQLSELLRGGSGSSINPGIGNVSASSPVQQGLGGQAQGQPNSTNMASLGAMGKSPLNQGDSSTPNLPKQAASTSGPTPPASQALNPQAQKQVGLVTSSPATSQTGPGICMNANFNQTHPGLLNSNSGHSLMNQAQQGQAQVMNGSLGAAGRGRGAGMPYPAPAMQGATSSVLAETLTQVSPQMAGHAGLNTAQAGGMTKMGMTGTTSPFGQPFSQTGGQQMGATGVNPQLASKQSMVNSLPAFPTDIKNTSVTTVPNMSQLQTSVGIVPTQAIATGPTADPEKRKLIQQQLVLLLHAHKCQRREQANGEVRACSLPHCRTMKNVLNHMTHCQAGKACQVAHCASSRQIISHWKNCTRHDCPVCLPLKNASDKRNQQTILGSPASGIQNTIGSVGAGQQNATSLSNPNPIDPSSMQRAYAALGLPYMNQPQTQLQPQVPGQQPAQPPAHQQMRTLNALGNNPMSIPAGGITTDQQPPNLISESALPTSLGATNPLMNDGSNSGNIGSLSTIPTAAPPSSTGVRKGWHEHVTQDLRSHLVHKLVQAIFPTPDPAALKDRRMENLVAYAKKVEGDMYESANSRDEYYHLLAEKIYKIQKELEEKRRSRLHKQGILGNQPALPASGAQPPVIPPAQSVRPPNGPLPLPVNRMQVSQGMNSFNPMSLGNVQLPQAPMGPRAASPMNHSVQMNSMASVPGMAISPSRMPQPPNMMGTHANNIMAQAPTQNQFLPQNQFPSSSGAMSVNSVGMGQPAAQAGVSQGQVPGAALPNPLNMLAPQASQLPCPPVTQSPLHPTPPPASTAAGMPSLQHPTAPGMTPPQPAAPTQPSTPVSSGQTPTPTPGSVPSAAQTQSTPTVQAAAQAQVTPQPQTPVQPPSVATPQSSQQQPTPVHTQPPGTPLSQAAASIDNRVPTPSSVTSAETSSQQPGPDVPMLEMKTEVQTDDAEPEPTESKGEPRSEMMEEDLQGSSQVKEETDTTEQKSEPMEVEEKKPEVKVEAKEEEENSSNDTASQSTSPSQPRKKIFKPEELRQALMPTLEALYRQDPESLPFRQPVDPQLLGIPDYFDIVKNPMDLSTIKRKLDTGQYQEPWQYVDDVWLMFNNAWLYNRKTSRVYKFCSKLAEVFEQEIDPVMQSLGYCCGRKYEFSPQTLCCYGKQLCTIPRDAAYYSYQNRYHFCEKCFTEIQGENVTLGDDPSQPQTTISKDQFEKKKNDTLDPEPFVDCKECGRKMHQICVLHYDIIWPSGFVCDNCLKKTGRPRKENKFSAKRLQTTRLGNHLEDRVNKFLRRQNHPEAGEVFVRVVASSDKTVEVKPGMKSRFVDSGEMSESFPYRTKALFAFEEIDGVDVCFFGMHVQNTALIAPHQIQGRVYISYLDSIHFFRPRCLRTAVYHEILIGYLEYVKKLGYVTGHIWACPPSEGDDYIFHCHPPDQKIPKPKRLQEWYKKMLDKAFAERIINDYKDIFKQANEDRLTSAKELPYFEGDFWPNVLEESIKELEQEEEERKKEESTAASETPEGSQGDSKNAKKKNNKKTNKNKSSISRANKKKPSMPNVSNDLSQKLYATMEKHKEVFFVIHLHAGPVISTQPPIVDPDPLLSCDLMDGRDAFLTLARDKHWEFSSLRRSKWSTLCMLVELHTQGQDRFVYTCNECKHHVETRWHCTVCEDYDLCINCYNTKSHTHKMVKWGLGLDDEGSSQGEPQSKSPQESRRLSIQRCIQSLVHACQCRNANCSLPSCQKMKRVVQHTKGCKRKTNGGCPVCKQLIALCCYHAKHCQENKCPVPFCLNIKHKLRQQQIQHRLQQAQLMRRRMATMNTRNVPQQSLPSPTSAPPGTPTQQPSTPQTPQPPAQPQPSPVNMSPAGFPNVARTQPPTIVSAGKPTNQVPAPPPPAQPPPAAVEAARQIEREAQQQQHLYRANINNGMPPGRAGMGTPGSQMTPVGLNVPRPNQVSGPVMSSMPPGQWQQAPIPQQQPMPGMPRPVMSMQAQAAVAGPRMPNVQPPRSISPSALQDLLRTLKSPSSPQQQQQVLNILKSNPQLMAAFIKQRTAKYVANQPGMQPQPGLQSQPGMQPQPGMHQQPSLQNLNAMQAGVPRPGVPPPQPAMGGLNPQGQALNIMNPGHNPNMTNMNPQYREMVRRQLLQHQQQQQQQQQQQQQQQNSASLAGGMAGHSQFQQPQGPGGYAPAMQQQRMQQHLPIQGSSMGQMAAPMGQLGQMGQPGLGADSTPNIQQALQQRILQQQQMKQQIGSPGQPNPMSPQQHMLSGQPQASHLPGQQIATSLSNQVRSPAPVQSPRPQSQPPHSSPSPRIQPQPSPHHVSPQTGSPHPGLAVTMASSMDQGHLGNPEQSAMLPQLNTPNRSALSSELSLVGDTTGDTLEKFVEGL
Molecule,N-Cad/CTF2 production (N-cadherin [1]),production of N-Cad/CTF2 (N-cadherin [2]),40 kDa peptide N-Cad/CTF1 (N-cadherin [3]),formation of a CBP/CREB complex on CRE-containing DNA templates (CBP/CREB complex)
"CC(C)C[C@H](NC(=O)[C@H](Cc1ccccc1)C[C@@H](O)[C@H](Cc1ccccc1)NC(=O)OC(C)(C)C)C(=O)N[C@@H](Cc1ccccc1)C(N)=O [L-685,458]",no N-Cad/CTF2 was detected,sensitive,accumulates,–
"N-Cad/CTF2: chicken cytoplasmic domain of N-cadherin (N-Cad/CTF2) inserted into vector pECE, expressed in L cells (protein) KRRDKERQAKQLLIDPEDDVRDNILKYDEEGGGEEDQDYDLSQLQQPDTVEPDAIKPVGIRRLDERPIHAEPQYPVRSAAPHPGDIGDFINEGLKAADNDPTAPPYDSLLVFDYEGSGSTAGSLSSLNSSSSGGEQDYDYLNDWGPRFKKLADMYGGGDD",–,–,–,defective in their ability to promote formation of a CBP/CREB complex
